PubChem BioAssay (NCI)
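Protocol summary: plate cells (96-well), add compound at 5 concentrations, incubate 48 h, interpolate endpoints linearly. TGI denotes the concentration required for complete inhibition of growth.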

Experiments:
Assay in all cases: NCI-60 cell line screen, 48 h
M14 melanoma = system: M14 melanoma
K-562 leukemia = system: K-562 leukemia
HOP-92 NSCLC = system: HOP-92 NSCLC
CCRF-CEM leukemia = system: CCRF-CEM leukemia
NCI-H23 lung = system: NCI-H23 lung
U251 CNS = system: U251 CNS
SNB-78 CNS = system: SNB-78 CNS
KM20L2 colon = system: KM20L2 colon
SF-268 CNS = system: SF-268 CNS
A549 NSCLC = system: A549 NSCLC
MOLT-4 leukemia = system: MOLT-4 leukemia
UACC-62 melanoma = system: UACC-62 melanoma
DMS 273 small cell lung = system: DMS 273 small cell lung
SNB-19 CNS = system: SNB-19 CNS
RXF 393 renal = system: RXF 393 renal
NCI-H226 lung = system: NCI-H226 lung
SK-MEL-5 melanoma = system: SK-MEL-5 melanoma
HCT-116 colon = system: HCT-116 colon
786-0 renal = system: 786-0 renal
OVCAR-5 ovarian = system: OVCAR-5 ovarian
A498 renal = system: A498 renal
HCT-15 colon = system: HCT-15 colon
SF-539 CNS = system: SF-539 CNS
MALME-3M melanoma = system: MALME-3M melanoma
HT29 colon = system: HT29 colon
SNB-75 CNS = system: SNB-75 CNS
OVCAR-8 ovarian = system: OVCAR-8 ovarian
HL-60(TB) leukemia = system: HL-60(TB) leukemia
RPMI-8226 leukemia = system: RPMI-8226 leukemia
IGROV1 ovarian = system: IGROV1 ovarian
OVCAR-3 ovarian = system: OVCAR-3 ovarian
CAKI-1 renal = system: CAKI-1 renal
NCI-H460 lung = system: NCI-H460 lung
SN12C renal = system: SN12C renal
SK-MEL-28 melanoma = system: SK-MEL-28 melanoma
DMS 114 small cell lung = system: DMS 114 small cell lung
SF-295 CNS = system: SF-295 CNS
SK-MEL-2 melanoma = system: SK-MEL-2 melanoma
TK-10 renal = system: TK-10 renal
HOP-62 NSCLC = system: HOP-62 NSCLC
HCC-2998 colon = system: HCC-2998 colon
RXF-631 renal = system: RXF-631 renal
SK-OV-3 ovarian = system: SK-OV-3 ovarian
COLO 205 colon = system: COLO 205 colon
M19-MEL melanoma = system: M19-MEL melanoma
KM12 colon = system: KM12 colon
UACC-257 melanoma = system: UACC-257 melanoma
OVCAR-4 ovarian = system: OVCAR-4 ovarian
UO-31 renal = system: UO-31 renal
ACHN renal = system: ACHN renal
NCI-H522 lung = system: NCI-H522 lung
LXFL 529 NSCLC = system: LXFL 529 NSCLC
HOP-18 NSCLC = system: HOP-18 NSCLC
DLD-1 colon = system: DLD-1 colon
LOX IMVI melanoma = system: LOX IMVI melanoma
EKVX NSCLC = system: EKVX NSCLC
XF 498 CNS = system: XF 498 CNS
SW-620 colon = system: SW-620 colon
SR leukemia = system: SR leukemia

Cc1cc(C)nc(NS(=O)(=O)c2ccc(Nc3c4ccccc4nc4c(C(=O)N5CCN(CCO)CC5)ccc(Cl)c34)cc2)n1
TGI (M14 melanoma): > 100 µM
TGI (K-562 leukemia): > 100 µM
TGI (HOP-92 NSCLC): > 100 µM
TGI (CCRF-CEM leukemia): > 100 µM
TGI (NCI-H23 lung): > 100 µM
TGI (U251 CNS): > 100 µM
TGI (SNB-78 CNS): > 100 µM
TGI (KM20L2 colon): > 100 µM
TGI (SF-268 CNS): > 100 µM
TGI (A549 NSCLC): > 100 µM
TGI (MOLT-4 leukemia): > 100 µM
TGI (UACC-62 melanoma): > 100 µM
TGI (DMS 273 small cell lung): > 100 µM
TGI (SNB-19 CNS): > 100 µM
TGI (RXF 393 renal): > 100 µM
TGI (NCI-H226 lung): > 100 µM
TGI (SK-MEL-5 melanoma): > 100 µM
TGI (HCT-116 colon): > 100 µM
TGI (786-0 renal): > 100 µM
TGI (OVCAR-5 ovarian): > 100 µM
TGI (A498 renal): > 100 µM
TGI (HCT-15 colon): > 100 µM
TGI (SF-539 CNS): > 100 µM
TGI (MALME-3M melanoma): > 100 µM
TGI (HT29 colon): > 100 µM
TGI (SNB-75 CNS): > 100 µM
TGI (OVCAR-8 ovarian): > 100 µM
TGI (HL-60(TB) leukemia): > 100 µM
TGI (RPMI-8226 leukemia): > 100 µM
TGI (IGROV1 ovarian): > 100 µM
TGI (OVCAR-3 ovarian): > 100 µM
TGI (CAKI-1 renal): > 100 µM
TGI (NCI-H460 lung): > 100 µM
TGI (SN12C renal): > 100 µM
TGI (SK-MEL-28 melanoma): > 100 µM
TGI (DMS 114 small cell lung): > 100 µM
TGI (SF-295 CNS): > 100 µM
TGI (SK-MEL-2 melanoma): > 100 µM
TGI (TK-10 renal): > 100 µM
TGI (HOP-62 NSCLC): > 100 µM
TGI (HCC-2998 colon): > 100 µM
TGI (RXF-631 renal): > 100 µM
TGI (SK-OV-3 ovarian): > 100 µM
TGI (COLO 205 colon): > 100 µM
TGI (M19-MEL melanoma): > 100 µM
TGI (KM12 colon): > 100 µM
TGI (UACC-257 melanoma): > 100 µM
TGI (OVCAR-4 ovarian): > 100 µM
TGI (UO-31 renal): > 100 µM

CC(=O)OC(OC(C)=O)c1ncccc1C(=O)OC(C)C
TGI (M14 melanoma): > 100 µM
TGI (K-562 leukemia): > 100 µM
TGI (HOP-92 NSCLC): > 100 µM
TGI (CCRF-CEM leukemia): 49.1 µM
TGI (NCI-H23 lung): > 100 µM
TGI (U251 CNS): > 100 µM
TGI (SNB-78 CNS): > 100 µM
TGI (KM20L2 colon): > 100 µM
TGI (SF-268 CNS): > 100 µM
TGI (A549 NSCLC): > 100 µM
TGI (MOLT-4 leukemia): > 100 µM
TGI (UACC-62 melanoma): > 100 µM
TGI (DMS 273 small cell lung): > 100 µM
TGI (ACHN renal): > 100 µM
TGI (NCI-H522 lung): > 100 µM
TGI (SNB-19 CNS): > 100 µM
TGI (RXF 393 renal): > 100 µM
TGI (NCI-H226 lung): > 100 µM
TGI (SK-MEL-5 melanoma): > 100 µM
TGI (HCT-116 colon): > 100 µM
TGI (LXFL 529 NSCLC): > 100 µM
TGI (786-0 renal): > 100 µM
TGI (OVCAR-5 ovarian): > 100 µM
TGI (A498 renal): > 100 µM
TGI (HOP-18 NSCLC): > 100 µM
TGI (HCT-15 colon): > 100 µM
TGI (SF-539 CNS): > 100 µM
TGI (MALME-3M melanoma): > 100 µM
TGI (HT29 colon): > 100 µM
TGI (SNB-75 CNS): > 100 µM
TGI (OVCAR-8 ovarian): > 100 µM
TGI (DLD-1 colon): > 100 µM
TGI (HL-60(TB) leukemia): 28.9 µM
TGI (LOX IMVI melanoma): > 100 µM
TGI (IGROV1 ovarian): > 100 µM
TGI (OVCAR-3 ovarian): > 100 µM
TGI (CAKI-1 renal): > 100 µM
TGI (NCI-H460 lung): > 100 µM
TGI (SN12C renal): > 100 µM
TGI (EKVX NSCLC): > 100 µM
TGI (SK-MEL-28 melanoma): > 100 µM
TGI (DMS 114 small cell lung): > 100 µM
TGI (SF-295 CNS): > 100 µM
TGI (SK-MEL-2 melanoma): > 100 µM
TGI (TK-10 renal): > 100 µM
TGI (HOP-62 NSCLC): > 100 µM
TGI (HCC-2998 colon): > 100 µM
TGI (SK-OV-3 ovarian): > 100 µM
TGI (XF 498 CNS): > 100 µM
TGI (SW-620 colon): > 100 µM
TGI (COLO 205 colon): > 100 µM
TGI (M19-MEL melanoma): > 100 µM
TGI (KM12 colon): > 100 µM
TGI (SR leukemia): > 100 µM
TGI (UACC-257 melanoma): > 100 µM
TGI (OVCAR-4 ovarian): > 100 µM
TGI (UO-31 renal): > 100 µM

CCc1cccc(C)c1NC(=O)CCc1nnc(SC)o1
TGI (M14 melanoma): > 100 µM
TGI (K-562 leukemia): > 100 µM
TGI (HOP-92 NSCLC): > 100 µM
TGI (CCRF-CEM leukemia): > 100 µM
TGI (NCI-H23 lung): > 100 µM
TGI (U251 CNS): > 100 µM
TGI (SNB-78 CNS): > 100 µM
TGI (KM20L2 colon): > 100 µM
TGI (SF-268 CNS): > 100 µM
TGI (A549 NSCLC): > 100 µM
TGI (MOLT-4 leukemia): > 100 µM
TGI (UACC-62 melanoma): > 100 µM
TGI (DMS 273 small cell lung): > 100 µM
TGI (ACHN renal): > 100 µM
TGI (NCI-H522 lung): > 100 µM
TGI (SNB-19 CNS): > 100 µM
TGI (RXF 393 renal): > 100 µM
TGI (SK-MEL-5 melanoma): > 100 µM
TGI (HCT-116 colon): > 100 µM
TGI (LXFL 529 NSCLC): > 100 µM
TGI (786-0 renal): > 100 µM
TGI (OVCAR-5 ovarian): > 100 µM
TGI (A498 renal): > 100 µM
TGI (HOP-18 NSCLC): > 100 µM
TGI (HCT-15 colon): > 100 µM
TGI (SF-539 CNS): > 100 µM
TGI (MALME-3M melanoma): > 100 µM
TGI (HT29 colon): > 100 µM
TGI (SNB-75 CNS): > 100 µM
TGI (OVCAR-8 ovarian): > 100 µM
TGI (DLD-1 colon): > 100 µM
TGI (HL-60(TB) leukemia): > 100 µM
TGI (RPMI-8226 leukemia): > 100 µM
TGI (LOX IMVI melanoma): > 100 µM
TGI (IGROV1 ovarian): > 100 µM
TGI (OVCAR-3 ovarian): > 100 µM
TGI (CAKI-1 renal): > 100 µM
TGI (NCI-H460 lung): > 100 µM
TGI (SN12C renal): > 100 µM
TGI (EKVX NSCLC): > 100 µM
TGI (SK-MEL-28 melanoma): > 100 µM
TGI (DMS 114 small cell lung): > 100 µM
TGI (SF-295 CNS): > 100 µM
TGI (SK-MEL-2 melanoma): > 100 µM
TGI (TK-10 renal): > 100 µM
TGI (HOP-62 NSCLC): > 100 µM
TGI (HCC-2998 colon): > 100 µM
TGI (SK-OV-3 ovarian): > 100 µM
TGI (XF 498 CNS): > 100 µM
TGI (SW-620 colon): > 100 µM
TGI (COLO 205 colon): > 100 µM
TGI (M19-MEL melanoma): > 100 µM
TGI (KM12 colon): > 100 µM
TGI (SR leukemia): > 100 µM
TGI (UACC-257 melanoma): > 100 µM
TGI (OVCAR-4 ovarian): > 100 µM
TGI (UO-31 renal): > 100 µM
